# Experimental data reported in US20230041563A1, “N-(1,3,4-OXADIAZOL-2-YL)ARYLCARBOXAMIDES OR SALTS THEREOF, PREPARATION METHODS, HERBICIDAL COMPOSITIONS AND USES THEREOF” (priority 2018, published 2023).
# Columns and labels:
# Experiment in all cases: Weeding effect in post-emergence stage (greenhouse pot spray)
# Type in all cases: in vivo
# Digitaria sanguinalis = test system: Digitaria sanguinalis
# From the text: (§1) The activity level criteria for plant damage (i.e., growth control rate) are as follows:
# (§2) The above growth control rates are fresh weight control rates.
# (§3) Experiment on weeding effect in post-emergence stage: monocotyledonous and dicotyledonous weed seeds (Descurainia sophia, Capsella bursa-pastoris, Abutilon theophrasti, Galium aparine, Stellaria media, Lithospermum arvense, rorippa indica, Alopecurus aequalis, Beckmannia syzigachne, Sclerochloa dura, Phleum paniculatum, Bromus japonicus, Aegilops tauschii, Phalaris arundinacea, Amaranthus retroflexus, Chenopodiaceae, Commelina communis, Sonchus arvensis, convolvulus arvensis, Cirsium setosum, Solanum nigrum, Acalypha australis, Digitaria sanguinalis, Echinochloa crusgalli, Setaria viridis, Setaria glauca, Leptochloa chinensis, Monochoria vaginalis, Sagittaria trifolia, Scirpus juncoides, Cyperus rotundus, Cyperus iria, Cyperus difformis, Fimbristylis, Portulaca oleracea, Xanthium sibiricum, Pharbitis nil) and major crop seeds (wheat, corn, rice, soybean, cotton, oilseed rape, millet, sorghum, potato, sesame, ricinus) were placed in plastic pots filled with soil, then covered with 0.5-2 cm of soil, allowed to grow in a good greenhouse environment. After 2 weeks of sowing, the test plants were treated in the 2 to 3 leaf stage. The tested compounds of the present invention were respectively dissolved in acetone, then added with Tween 80 and 1.5 liter/ha of emulsifiable concentrate of methyl oleate as synergist, diluted with a certain amount of water to obtain a solution with a certain concentration, and sprayed with a spray tower onto the plants. After the application, the plants were cultured for 3 weeks in the greenhouse, and then the experimental results of the weeding were counted. […]
# Setaria viridis = test system: Setaria viridis
# From the text: as §1, §2, §3
# Echinochloa crusgalli = test system: Echinochloa crusgalli
# From the text: as §1, §2, §3
structure (smiles),measurement,setting,value
CC[S@+]([O-])c1c(C(F)(F)F)ccc(C(=O)Nc2nnc(C)o2)c1F [1-5 (R-configuration)],Digitaria sanguinahs (activity level),"Digitaria sanguinalis; Table 3, dose 3.75 g a.i./ha",3 (Level 3: growth control rate is greater than or equal to 40% and less than 60%)
same,Digitaria sanguinahs (activity level),"Digitaria sanguinalis; Table 3, dose 7.5 g a.i./ha",4 (Level 4: growth control rate is greater than or equal to 60% and less than 85%)
same,Digitaria sanguinahs (activity level),"Digitaria sanguinalis; Table 3, dose 15 g a.i./ha",5 (Level 5: growth control rate is above 85%)
same,Digitaria sanguinahs (activity level),"Digitaria sanguinalis; Table 3, dose 30 g a.i./ha",5 (Level 5: growth control rate is above 85%)
same,Digitaria sanguinahs (activity level),"Digitaria sanguinalis; Table 3, dose 60 g a.i./ha",5 (Level 5: growth control rate is above 85%)
same,Setaria viridis (activity level),"Setaria viridis; Table 3, dose 3.75 g a.i./ha",3 (Level 3: growth control rate is greater than or equal to 40% and less than 60%)
same,Setaria viridis (activity level),"Setaria viridis; Table 3, dose 7.5 g a.i./ha",4 (Level 4: growth control rate is greater than or equal to 60% and less than 85%)
same,Setaria viridis (activity level),"Setaria viridis; Table 3, dose 15 g a.i./ha",5 (Level 5: growth control rate is above 85%)
same,Setaria viridis (activity level),"Setaria viridis; Table 3, dose 30 g a.i./ha",5 (Level 5: growth control rate is above 85%)
same,Setaria viridis (activity level),"Setaria viridis; Table 3, dose 60 g a.i./ha",5 (Level 5: growth control rate is above 85%)
same,Echinochloa crusgali (activity level),"Echinochloa crusgalli; Table 3, dose 3.75 g a.i./ha",4 (Level 4: growth control rate is greater than or equal to 60% and less than 85%)
same,Echinochloa crusgali (activity level),"Echinochloa crusgalli; Table 3, dose 7.5 g a.i./ha",5 (Level 5: growth control rate is above 85%)
same,Echinochloa crusgali (activity level),"Echinochloa crusgalli; Table 3, dose 15 g a.i./ha",5 (Level 5: growth control rate is above 85%)
same,Echinochloa crusgali (activity level),"Echinochloa crusgalli; Table 3, dose 30 g a.i./ha",5 (Level 5: growth control rate is above 85%)
same,Echinochloa crusgali (activity level),"Echinochloa crusgalli; Table 3, dose 60 g a.i./ha",5 (Level 5: growth control rate is above 85%)
CC#CC[S@+]([O-])c1c(C(F)(F)F)ccc(C(=O)Nc2nnc(C)o2)c1F [1-402 (R-configuration)],Digitaria sanguinahs (activity level),"Digitaria sanguinalis; Table 3, dose 500 g a.i./ha",5 (Level 5: growth control rate is above 85%)
same,Setaria viridis (activity level),"Setaria viridis; Table 3, dose 500 g a.i./ha",5 (Level 5: growth control rate is above 85%)
same,Echinochloa crusgali (activity level),"Echinochloa crusgalli; Table 3, dose 500 g a.i./ha",5 (Level 5: growth control rate is above 85%)
CC(=O)C[S@@+]([O-])c1c(C(F)(F)F)ccc(C(=O)Nc2nnc(C)o2)c1F [1-552 (R-configuration)],Digitaria sanguinahs (activity level),"Digitaria sanguinalis; Table 3, dose 125 g a.i./ha",5 (Level 5: growth control rate is above 85%)
same,Setaria viridis (activity level),"Setaria viridis; Table 3, dose 125 g a.i./ha",5 (Level 5: growth control rate is above 85%)
same,Echinochloa crusgali (activity level),"Echinochloa crusgalli; Table 3, dose 125 g a.i./ha",5 (Level 5: growth control rate is above 85%)
CCOCC[S@+]([O-])c1c(C(F)(F)F)ccc(C(=O)Nc2nnc(C)o2)c1F [1-446 (R-configuration)],Digitaria sanguinahs (activity level),"Digitaria sanguinalis; Table 3, dose 500 g a.i./ha",5 (Level 5: growth control rate is above 85%)
same,Setaria viridis (activity level),"Setaria viridis; Table 3, dose 500 g a.i./ha",5 (Level 5: growth control rate is above 85%)
same,Echinochloa crusgali (activity level),"Echinochloa crusgalli; Table 3, dose 500 g a.i./ha",5 (Level 5: growth control rate is above 85%)
Cc1nnc(NC(=O)c2ccc(C(F)(F)F)c([S@@+]([O-])CC(C)O)c2F)o1 (stereo partly drawn) [1-431 (R-configuration)],Digitaria sanguinahs (activity level),"Digitaria sanguinalis; Table 3, dose 500 g a.i./ha",5 (Level 5: growth control rate is above 85%)
same,Setaria viridis (activity level),"Setaria viridis; Table 3, dose 500 g a.i./ha",5 (Level 5: growth control rate is above 85%)
same,Echinochloa crusgali (activity level),"Echinochloa crusgalli; Table 3, dose 500 g a.i./ha",5 (Level 5: growth control rate is above 85%)
CCC[S@@+]([O-])c1c(C(F)(F)F)ccc(C(=O)Nc2nnco2)c1F [3-8 (R-configuration)],Digitaria sanguinahs (activity level),"Digitaria sanguinalis; Table 3, dose 60 g a.i./ha",5 (Level 5: growth control rate is above 85%)
same,Setaria viridis (activity level),"Setaria viridis; Table 3, dose 60 g a.i./ha",5 (Level 5: growth control rate is above 85%)
same,Echinochloa crusgali (activity level),"Echinochloa crusgalli; Table 3, dose 60 g a.i./ha",5 (Level 5: growth control rate is above 85%)
Cc1nnc(NC(=O)c2ccc(C(F)(F)F)c([S@+]([O-])CCC(F)(F)C(F)(F)F)c2F)o1 [1-412 (R-configuration)],Digitaria sanguinahs (activity level),"Digitaria sanguinalis; Table 3, dose 500 g a.i./ha",5 (Level 5: growth control rate is above 85%)
same,Setaria viridis (activity level),"Setaria viridis; Table 3, dose 500 g a.i./ha",5 (Level 5: growth control rate is above 85%)
same,Echinochloa crusgali (activity level),"Echinochloa crusgalli; Table 3, dose 500 g a.i./ha",5 (Level 5: growth control rate is above 85%)
Cc1nnc(NC(=O)c2ccc(C(F)(F)F)c([S@+](C)[O-])c2F)o1 [1-2 (R-configuration)],Digitaria sanguinahs (activity level),"Digitaria sanguinalis; Table 3, dose 7.5 g a.i./ha",0 (Level 0: growth control rate is less than 5%)
same,Digitaria sanguinahs (activity level),"Digitaria sanguinalis; Table 3, dose 15 g a.i./ha",1 (Level 1: growth control rate is greater than or equal to 5% and less than 20%)
same,Digitaria sanguinahs (activity level),"Digitaria sanguinalis; Table 3, dose 30 g a.i./ha",3 (Level 3: growth control rate is greater than or equal to 40% and less than 60%)
same,Digitaria sanguinahs (activity level),"Digitaria sanguinalis; Table 3, dose 60 g a.i./ha",4 (Level 4: growth control rate is greater than or equal to 60% and less than 85%)
same,Setaria viridis (activity level),"Setaria viridis; Table 3, dose 7.5 g a.i./ha",0 (Level 0: growth control rate is less than 5%)
same,Setaria viridis (activity level),"Setaria viridis; Table 3, dose 15 g a.i./ha",2 (Level 2: growth control rate is greater than or equal to 20% and less than 40%)
same,Setaria viridis (activity level),"Setaria viridis; Table 3, dose 30 g a.i./ha",3 (Level 3: growth control rate is greater than or equal to 40% and less than 60%)
same,Setaria viridis (activity level),"Setaria viridis; Table 3, dose 60 g a.i./ha",3 (Level 3: growth control rate is greater than or equal to 40% and less than 60%)
same,Echinochloa crusgali (activity level),"Echinochloa crusgalli; Table 3, dose 7.5 g a.i./ha",0 (Level 0: growth control rate is less than 5%)
same,Echinochloa crusgali (activity level),"Echinochloa crusgalli; Table 3, dose 15 g a.i./ha",1 (Level 1: growth control rate is greater than or equal to 5% and less than 20%)
same,Echinochloa crusgali (activity level),"Echinochloa crusgalli; Table 3, dose 30 g a.i./ha",3 (Level 3: growth control rate is greater than or equal to 40% and less than 60%)
same,Echinochloa crusgali (activity level),"Echinochloa crusgalli; Table 3, dose 60 g a.i./ha",4 (Level 4: growth control rate is greater than or equal to 60% and less than 85%)
C/C=C/C[S@@+]([O-])c1c(C(F)(F)F)ccc(C(=O)Nc2nnc(C)o2)c1F [1-398 (R-configuration)],Digitaria sanguinahs (activity level),"Digitaria sanguinalis; Table 3, dose 250 g a.i./ha",5 (Level 5: growth control rate is above 85%)
same,Setaria viridis (activity level),"Setaria viridis; Table 3, dose 250 g a.i./ha",5 (Level 5: growth control rate is above 85%)
same,Echinochloa crusgali (activity level),"Echinochloa crusgalli; Table 3, dose 250 g a.i./ha",5 (Level 5: growth control rate is above 85%)
C=CCC[S@+]([O-])c1c(C(F)(F)F)ccc(C(=O)Nc2nnc(C)o2)c1F [1-397 (R-configuration)],Digitaria sanguinahs (activity level),"Digitaria sanguinalis; Table 3, dose 125 g a.i./ha",5 (Level 5: growth control rate is above 85%)
same,Setaria viridis (activity level),"Setaria viridis; Table 3, dose 125 g a.i./ha",5 (Level 5: growth control rate is above 85%)
same,Echinochloa crusgali (activity level),"Echinochloa crusgalli; Table 3, dose 125 g a.i./ha",5 (Level 5: growth control rate is above 85%)
Cc1nnc(NC(=O)c2ccc(C(F)(F)F)c([S@@+]([O-])CCCC(F)(F)F)c2F)o1 [1-411 (R-configuration)],Digitaria sanguinahs (activity level),"Digitaria sanguinalis; Table 3, dose 250 g a.i./ha",5 (Level 5: growth control rate is above 85%)
same,Setaria viridis (activity level),"Setaria viridis; Table 3, dose 250 g a.i./ha",5 (Level 5: growth control rate is above 85%)
same,Echinochloa crusgali (activity level),"Echinochloa crusgalli; Table 3, dose 250 g a.i./ha",5 (Level 5: growth control rate is above 85%)
CC(C)=NOCC[S@@+]([O-])c1c(C(F)(F)F)ccc(C(=O)Nc2nnc(C)o2)c1F [1-525 (R-configuration)],Digitaria sanguinahs (activity level),"Digitaria sanguinalis; Table 3, dose 500 g a.i./ha",5 (Level 5: growth control rate is above 85%)
same,Setaria viridis (activity level),"Setaria viridis; Table 3, dose 500 g a.i./ha",5 (Level 5: growth control rate is above 85%)
same,Echinochloa crusgali (activity level),"Echinochloa crusgalli; Table 3, dose 500 g a.i./ha",5 (Level 5: growth control rate is above 85%)
CCC[S@@+]([O-])c1c(C(F)(F)F)ccc(C(=O)Nc2nnc(C(C)C)o2)c1F [6-8 (R-configuration)],Digitaria sanguinahs (activity level),"Digitaria sanguinalis; Table 3, dose 250 g a.i./ha",5 (Level 5: growth control rate is above 85%)
same,Setaria viridis (activity level),"Setaria viridis; Table 3, dose 250 g a.i./ha",5 (Level 5: growth control rate is above 85%)
same,Echinochloa crusgali (activity level),"Echinochloa crusgalli; Table 3, dose 250 g a.i./ha",5 (Level 5: growth control rate is above 85%)
COC(C)C[S@+]([O-])c1c(C(F)(F)F)ccc(C(=O)Nc2nnc(C)o2)c1F (stereo partly drawn) [1-447 (R-configuration)],Digitaria sanguinahs (activity level),"Digitaria sanguinalis; Table 3, dose 500 g a.i./ha",5 (Level 5: growth control rate is above 85%)
same,Setaria viridis (activity level),"Setaria viridis; Table 3, dose 500 g a.i./ha",5 (Level 5: growth control rate is above 85%)
same,Echinochloa crusgali (activity level),"Echinochloa crusgalli; Table 3, dose 500 g a.i./ha",5 (Level 5: growth control rate is above 85%)
CC(C)[S@+]([O-])c1c(C(F)(F)F)ccc(C(=O)Nc2nnco2)c1F [3-11 (R-configuration)],Digitaria sanguinahs (activity level),"Digitaria sanguinalis; Table 3, dose 125 g a.i./ha",5 (Level 5: growth control rate is above 85%)
same,Setaria viridis (activity level),"Setaria viridis; Table 3, dose 125 g a.i./ha",5 (Level 5: growth control rate is above 85%)
same,Echinochloa crusgali (activity level),"Echinochloa crusgalli; Table 3, dose 125 g a.i./ha",5 (Level 5: growth control rate is above 85%)
Cc1nnc(NC(=O)c2ccc(C(F)(F)F)c([S@@+]([O-])CCC#N)c2F)o1 [1-427 (R-configuration)],Digitaria sanguinahs (activity level),"Digitaria sanguinalis; Table 3, dose 500 g a.i./ha",5 (Level 5: growth control rate is above 85%)
same,Setaria viridis (activity level),"Setaria viridis; Table 3, dose 500 g a.i./ha",5 (Level 5: growth control rate is above 85%)
same,Echinochloa crusgali (activity level),"Echinochloa crusgalli; Table 3, dose 500 g a.i./ha",5 (Level 5: growth control rate is above 85%)
CCOC[S+]([O-])c1c(C(F)(F)F)ccc(C(=O)Nc2nnc(C)o2)c1F (stereo not drawn) [1-444 (R-configuration)],Digitaria sanguinahs (activity level),"Digitaria sanguinalis; Table 3, dose 500 g a.i./ha",5 (Level 5: growth control rate is above 85%)
same,Setaria viridis (activity level),"Setaria viridis; Table 3, dose 500 g a.i./ha",5 (Level 5: growth control rate is above 85%)
same,Echinochloa crusgali (activity level),"Echinochloa crusgalli; Table 3, dose 500 g a.i./ha",5 (Level 5: growth control rate is above 85%)
